Assay results from patent EP4670717A1, “PYRROLIDINE-FUSED MYRTANOL DERIVATIVES AS INHIBITORS AND/OR DEGRADERS OF IDO1 UND USE THEREOF” (Max-Planck-Gesellschaft zur Förderung der Wissenschaften …, priority 2024, dated 2025).
“Also recorded” adds a separate entry of the source.

Tests used:
IDO1 [1] = target: T1, IDO1 (Homo sapiens, UniProt P14902); assay: Kyn assay in BxPC-3 cells (Kyn levels after IFN-γ and Trp); type: cell-based; conditions: for IC50: BxPC-3 cells incubated with IFN-γ, Trp and the compounds for 48 h, read-out: Kyn assay IC50 ± SD; for activity in the cell-based kynurenine assay: result in words;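 as to all read-outs here: kyn levels expressed relative to DMSO-treated control cells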
T1 construct: BxPC3 cells were seeded in phenol red-free RPMI 1640 medium; endogenous in cells; host or cells: BxPC3 cells stimulated with IFN-γ (50 ng/mL)
T1 sequence (P14902 whole entry): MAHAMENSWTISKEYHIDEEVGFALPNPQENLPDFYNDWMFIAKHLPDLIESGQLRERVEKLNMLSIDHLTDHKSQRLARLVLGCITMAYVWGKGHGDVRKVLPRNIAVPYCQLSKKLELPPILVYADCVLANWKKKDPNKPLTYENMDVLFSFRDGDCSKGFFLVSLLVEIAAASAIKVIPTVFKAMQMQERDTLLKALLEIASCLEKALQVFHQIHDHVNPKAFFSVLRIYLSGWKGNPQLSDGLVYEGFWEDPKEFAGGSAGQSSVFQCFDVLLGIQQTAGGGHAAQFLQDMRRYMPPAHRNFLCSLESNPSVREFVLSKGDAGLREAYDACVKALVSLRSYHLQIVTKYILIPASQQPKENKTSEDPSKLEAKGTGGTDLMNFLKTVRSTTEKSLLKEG
Description: BxPC3 cells were seeded in phenol red-free RPMI 1640 medium in 1536-well or 384-well plates (Greiner #782086, Corning #3770) 24 h prior to the addition of compounds, IFN-γ (50 ng/mL, PeproTech) and L-Trp (380 µM, Sigmal-Aldrich). After 48 h of incubation, first cell viability was accessed by the addition of Hoechst-33342. Afterwards, trichloroacetic acid (TCA, Sigma-Aldrich) was added to a final concentration of 7 % and incubated for 10 min prior to a centrifugation step of 10 min at 1620 × g. Kyn levels were determined by means of the Kyn sensor^7 at a final concentration of 17.5 µM in sensor buffer (50 mM H3PO4 and 120 mM NaCl (pH=1)). Fluorescence intensity (excitation: 535 nm, emission: 595 nm) was measured using a Spectramax Paradigm reader (Molecular Devices). Data were normalized to the values for cells that were treated with DMSO.
For the manual assay, BxPC3 or SKOV3 cells were seeded in clear 96-well or 384-well plates, respectively, 24 h prior to compound treatment and IFN-γ (50 or 5 ng/mL, respectively) and L-Trp (380 µM) addition as described before.^7 48 h after treatment, TCA was added and Kyn levels were detected by means of 2 % w/v of p-DMAB (Ehrlich reagent) in acetic acid as described by Braun et al^29. The absorbance of the Ehrlich reagent was detected at 492 nm and at 650 nm as background control was measured on Spark® multimode microplate plate reader (Tecan, Austria). Kyn levels were determined by subtracting the absorbance value at 650 nm and presented relative to the DMSO control. Dose-response curves and IC50 values were generated and fitted with GraphPad Prism 6.0 (GraphPad software, USA) using four-parameter variable slope non-linear regression curve fit.
Cells were incubated with IFN-γ, Trp and the compounds for 48 h prior to detection of Kyn levels.

IDO1 [2] = target: T1, IDO1; assay: IDO1 degradation in BxPC3 cells, IDO1 protein levels by immunoblotting; type: cell-based; conditions: 50 ng/ml IFN-γ 24 h, washout, compound (100 nM) 24 h, maximum IDO1 degradation at 0.1 µM; for Dmax at 0.1 µM: BXPC-3, BxPC3 cells; for Dmax [%] (n): BxPC3 cells;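 as to all read-outs here: IDO1 bands on Western blots detected with fluorescent dye-labelled secondary antibodies and quantified by band intensity, values are means of n biological replicates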
Description: To analyze IDO1 levels, IFN-γ-stimulated BxPC3 cells (50 ng/mL IFN-γ), U2OS cells (5 ng/mL IFN-γ), HEK^rhIDO1 (HEK293T cells electroporated with rhIDO1), SKOV3 and BT549 cells were treated with compounds for the indicated times (6 h to 24 h) followed by cell lysis (150 mM sodium chloride in 50 mM Tris (pH 8.0) and 1% NP-40 Alternative, protease and phosphatase inhibitors). Protein concentrations were determined (DC protein assay, Bio-Rad) followed by addition of 1 × SDS loading buffer and protein separation by a 10% SDS-PAGE. Separated protein samples were transferred to a polyvinylidene difluoride (PVDF) membrane using a wet-tank blotting system (Bio-Rad). IDO1 as well as vinculin as a loading were detected using the primary antibodies anti-IDO1 (ab211017, abcam or 14-9750-80, Thermo Fisher), anti-vinculin (V9131, Thermo Fisher) and anti-β-actin (ab8227, abcam) in 5 % milk in PBS-buffered saline with 0.05 % (v/v) Tween-20 (PBS-T). Primary antibodies were incubated at 4°C overnight and detected with IRDye-conjugated secondary antibodies (LI-COR Biosciences). IDO1 protein level in BT549 and SKOV3 cells was detected with HRP conjugated secondary antibody and SuperSignal™ West Dura Extended Duration Substrat (Thermo Fisher Scientific). Washing steps were performed with PBS-T. Protein bands were visualized by ChemiDoc™ MP (Bio-Rad) using a fluorescent readout. Band intensities were quantified using Image Lab software.
In order to differentiate between these different activities, we explored the modes of action of selected compounds in an in vitro assay employing recombinant human IDO1 (rhIDO1) monitoring enzymatic activity only, and we characterized the degradation efficiency by means of Western blotting, determining maximum degradation levels at 0.1µM (Dmax) and half maximum degradation concentration (DC50) (Table B-2). […] Data are mean values of n biological replicates. Dmax corresponds to maximum levels of IDO1 degradation at 0.1 µM.

[3] = target: T2, recombinant human IDO1 (rhIDO1) (Homo sapiens, UniProt P14902); assay: IDO1 enzymatic assay with recombinant protein, Kyn detection with p-DMAB; type: biochemical; conditions: pre-incubated with compounds at 37°C for 40 min; for inhibition at 59 µM / rhIDO1 enzymatic activity Inhibition [%]: in vitro inhibition at 59 uM
T2 construct: Full-length rhIDO protein (1 µM) in 50 mM potassium phosphate buffer; GST (cleaved yes); made in house; host or cells: E. coli
T2 sequence (P14902 whole entry): as above
Description: Reduction of the kynurenine level in the cell-based model employed for initial SAR exploration can be due to inhibition of enzymatic activity, degradation of IDO1, or both (Table B-2). In order to differentiate between these different activities, we explored the modes of action of selected compounds in an in vitro assay employing recombinant human IDO1 (rhIDO1) monitoring enzymatic activity only, and we characterized the degradation efficiency by means of Western blotting, determining maximum degradation levels at 0.1µM (Dmax) and half maximum degradation concentration (DC50) (Table B-2). Table B-2 in vitro inhibition and degradation of IDO1 by selected compounds. […] Data are mean values ± SD (n = 4, except for compounds 1, 11, and 19 (n=2)). […] Data are mean values of n biological replicates. Dmax corresponds to maximum levels of IDO1 degradation at 0.1 µM.
Full-length rhIDO protein (1 µM) in 50 mM potassium phosphate buffer (50 mM KH2PO4 and 50 mM K2HPO4, pH 6.5) was incubated with the respective compounds for 40 min at 37 °C prior to the addition of 10 mM ascorbic acid, 10 µM methylene blue, 2 mM Trp and 100 µg/mL catalase (Sigma-Aldrich, C100). Samples were incubated for 60 min followed by the addition of trichloroacetic acid to a final concentration of 7 % and further incubation for 30 min at 37 °C. Kyn levels were detected by the addition of an equal volume of 2 % (w/v) p-DMAB in acetic acid and absorbance was measured at 492 nm and 650 nm as a background control. Values are presented relative to the DMSO control. Dose-response curves and IC50 values were generated and fitted with GraphPad Prism 6.0 (GraphPad software, USA) using four-parameter variable slope non-linear regression curve fit.

| SMILES | IC50 (IDO1 [1]) [nM] | Dmax at 0.1 µM (IDO1 [2]) [%] | further results |
| --- | --- | --- | --- |
| CC(C)(C)c1ccc(S(=O)(=O)N2C[C@H]3C[C@H]4C[C@H](C4(C)C)[C@@]3(COC(=O)Nc3ccc(I)cc3)C2)c(I)c1 [compound 57, ((3aS,4R,6R,7aS)-2-((4-(tert-butyl)-2-iodophenyl)sulfonyl)-5,5-dimethyloctahydro-3aH-4,6-methanoisoindol-3a-yl)methyl (4-iodophenyl)carbamate] | < 200 | 55 to 59 | Dmax [%] (n) (IDO1 [2]): 55 ± 5 (3) % |
| CC(C)(C(=O)O)c1ccc(S(=O)(=O)N2C[C@H]3C[C@H]4C[C@H](C4(C)C)[C@@]3(COC(=O)Nc3ccc(I)cc3)C2)cc1 [compound 65, 2-(4-(((3aS,4R,6R,7aS)-3a-((((4-iodophenyl)carbamoyl)oxy)methyl)-5,5-dimethyloctahydro-2H-4,6-methanoisoindol-2-yl)sulfonyl)phenyl)-2-methylpropanoic acid] | < 200 | 36 to 46 | activity in the cell-based kynurenine assay (IDO1 [1]): low nanomolar range; inhibition at 59 µM [3]: 72 ± 4%; IC50 ([3]; determined if inhibition at 59 µM was higher than 50%, read-out: rhIDO1 enzymatic activity IC50 ± SD): 820 ± 140 nM; Dmax [%] (n) (IDO1 [2]): 46 ± 21 (5) % |
| COc1cc(C(C)(C)C)ccc1S(=O)(=O)N1C[C@H]2C[C@H]3C[C@H](C3(C)C)[C@@]2(COC(=O)Nc2ccc(I)cc2)C1 [compound 55, ((3aS,4R,6R,7aS)-2-((4-(tert-butyl)-2-methoxyphenyl)sulfonyl)-5,5-dimethyloctahydro-3aH-4,6-methanoisoindol-3a-yl)methyl (4-iodophenyl)carbamate] | < 200 | 55 to 59 | Dmax [%] (n) (IDO1 [2]): 59 ± 16 (3) % |
| CCc1cc(C(C)(C)C)ccc1S(=O)(=O)N1C[C@H]2C[C@H]3C[C@H](C3(C)C)[C@@]2(COC(=O)Nc2ccc(I)cc2)C1 [compound 53, ((3aS,4R,6R,7aS)-2-((4-(tert-butyl)-2-ethylphenyl)sulfonyl)-5,5-dimethyloctahydro-3aH-4,6-methanoisoindol-3a-yl)methyl (4-iodophenyl)carbamate] | < 200 | 55 to 59 | inhibition at 59 µM [3]: 37 ± 9%; Dmax [%] (n) (IDO1 [2]): 56 ± 4 (3) % |
| COc1cc(C(C)(C)C(=O)O)ccc1S(=O)(=O)N1C[C@H]2C[C@H]3C[C@H](C3(C)C)[C@@]2(COC(=O)Nc2ccc(I)cc2)C1 [compound 67, 2-(4-(((3aS,4R,6R,7aS)-3a-((((4-iodophenyl)carbamoyl)oxy)methyl)-5,5-dimethyloctahydro-2H-4,6-methanoisoindol-2-yl)sulfonyl)-3-methoxyphenyl)-2-methylpropanoic acid] | < 200 | 0 |  |
| CC1(C)[C@H]2C[C@@H]3CN(S(=O)(=O)c4ccccc4)C[C@]3(COC(=O)Nc3ccc(I)cc3)[C@@H]1C2 [compound 37, ((3aS,4R,6R,7aS)-5,5-dimethyl-2-(phenylsulfonyl)octahydro-3aH-4,6-methanoisoindol-3a-yl)methyl (4-iodophenyl)carbamate] | 1000 to 5000 |  |  |
| CCOC(=O)C(C)(C)c1ccc(S(=O)(=O)N2C[C@H]3C[C@H]4C[C@H](C4(C)C)[C@@]3(COC(=O)Nc3ccc(I)cc3)C2)cc1 [compound 64, Ethyl 2-(4-(((3aS,4R,6R,7aS)-3a-((((4-iodophenyl)carbamoyl)oxy)methyl)-5,5-dimethyloctahydro-2H-4,6-methanoisoindol-2-yl)sulfonyl)phenyl)-2-methylpropanoate] | 200 to 1000 |  |  |
| COC(=O)C(C)(C)c1ccc(S(=O)(=O)N2C[C@H]3C[C@H]4C[C@H](C4(C)C)[C@@]3(COC(=O)Nc3ccc(I)cc3)C2)c(Cl)c1 [compound 68, Methyl 2-(3-chloro-4-(((3aS,4R,6R,7aS)-3a-((((4-iodophenyl)carbamoyl)oxy)methyl)-5,5-dimethyloctahydro-2H-4,6-methanoisoindol-2-yl)sulfonyl)phenyl)-2-methylpropanoate] | < 200 |  | rhIDO1 enzymatic activity Inhibition [%] [3]: inactive |
| Cc1cccc(S(=O)(=O)N2C[C@H]3C[C@H]4C[C@H](C4(C)C)[C@@]3(COC(=O)Nc3ccc(I)cc3)C2)c1 [compound 40, ((3aS,4R,6R,7aS)-5,5-dimethyl-2-(m-tolylsulfonyl)octahydro-3aH-4,6-methanoisoindol-3a-yl)methyl (4-iodophenyl)carbamate] | 1000 to 5000 |  |  |
| C#Cc1ccc(NC(=O)OC[C@]23CN(S(=O)(=O)c4ccc(C(C)(C)C(=O)O)cc4C)C[C@H]2C[C@H]2C[C@@H]3C2(C)C)cc1 [compound 75, 2-(4-(((3aS,4R,6R,7aS)-3a-((((4-ethynylphenyl)carbamoyl)oxy)methyl)-5,5-dimethyloctahydro-2H-4,6-methanoisoindol-2-yl)sulfonyl)-3-methylphenyl)-2-methylpropanoic acid] | < 200 | 27 ± 14 | activity in the cell-based kynurenine assay (IDO1 [1]): low nanomolar range |
| Cc1ccc(NC(=O)OC[C@]23CN(S(=O)(=O)c4ccc(C(F)(F)F)cc4)C[C@H]2C[C@H]2C[C@@H]3C2(C)C)cc1 [compound 32, ((3aS,4R,6R,7aS)-5,5-dimethyl-2-((4-(trifluoromethyl)phenyl)sulfonyl)octahydro-3aH-4,6-methanoisoindol-3a-yl)methyl p-tolylcarbamate] | 1000 to 5000 |  |  |
| CC(C)c1ccc(S(=O)(=O)N2C[C@H]3C[C@H]4C[C@H](C4(C)C)[C@@]3(COC(=O)Nc3ccc(I)cc3)C2)cc1 [compound 43, ((3aS,4R,6R,7aS)-2-((4-isopropylphenyl)sulfonyl)-5,5-dimethyloctahydro-3aH-4,6-methanoisoindol-3a-yl)methyl (4-iodophenyl)carbamate] | < 200 |  |  |
| CC1(C)[C@H]2C[C@@H]3CN(S(=O)(=O)c4ccc([Si](C)(C)C)cc4)C[C@]3(COC(=O)Nc3ccc(I)cc3)[C@@H]1C2 [compound 50, ((3aS,4R,6R,7aS)-5,5-dimethyl-2-((4-(trimethylsilyl)phenyl)sulfonyl)octahydro-3aH-4,6-methanoisoindol-3a-yl)methyl (4-iodophenyl)carbamate] | 200 to 1000 |  |  |
| Cc1ccccc1S(=O)(=O)N1C[C@H]2C[C@H]3C[C@H](C3(C)C)[C@@]2(COC(=O)Nc2ccc(I)cc2)C1 [compound 39, ((3aS,4R,6R,7aS)-5,5-dimethyl-2-(o-tolylsulfonyl)octahydro-3aH-4,6-methanoisoindol-3a-yl)methyl (4-iodophenyl)carbamate] | 200 to 1000 |  |  |
| CC(C)(C)c1ccc(S(=O)(=O)N2C[C@H]3C[C@H]4C[C@H](C4(C)C)[C@@]3(COC(=O)Nc3ccc(Cl)cc3)C2)cc1 [compound 9, ((3aS,4R,6R,7aS)-2-((4-(tert-butyl)phenyl)sulfonyl)-5,5-dimethyloctahydro-3aH-4,6-methanoisoindol-3a-yl)methyl (4-chlorophenyl)carbamate] | 200 to 1000 |  |  |
| CC(C)(C)c1ccc(S(=O)(=O)N2C[C@H]3C[C@H]4C[C@H](C4(C)C)[C@@]3(COC(=O)Nc3ccc(C#N)cc3)C2)cc1 [compound 23, ((3aS,4R,6R,7aS)-2-((4-(tert-butyl)phenyl)sulfonyl)-5,5-dimethyloctahydro-3aH-4,6-methanoisoindol-3a-yl)methyl (4-cyanophenyl)carbamate] | 1000 to 5000 |  |  |
| CC(C)(C)c1ccc(S(=O)(=O)N2C[C@H]3C[C@H]4C[C@H](C4(C)C)[C@@]3(COC(=O)Nc3ccc(Br)cc3)C2)cc1 [compound 10, ((3aS,4R,6R,7aS)-2-((4-(tert-butyl)phenyl)sulfonyl)-5,5-dimethyloctahydro-3aH-4,6-methanoisoindol-3a-yl)methyl (4-bromophenyl)carbamate] | 200 to 1000 |  |  |
| Cc1ccc(NC(=O)OC[C@]23CN(S(=O)(=O)c4ccc(C(C)(C)C)cc4)C[C@H]2C[C@H]2C[C@@H]3C2(C)C)cc1 [compound 1, ((3aS,4R,6R,7aS)-2-((4-(tert-butyl)phenyl)sulfonyl)-5,5-dimethyloctahydro-3aH-4,6-methanoisoindol-3a-yl)methyl p-tolylcarbamate] | 200 to 1000 |  | rhIDO1 enzymatic activity Inhibition [%] [3]: not active; also recorded: inactive |
| CC(C)(C)Cc1ccc(S(=O)(=O)N2C[C@H]3C[C@H]4C[C@H](C4(C)C)[C@@]3(COC(=O)Nc3ccc(I)cc3)C2)cc1 [compound 47, ((3aS,4R,6R,7aS)-5,5-dimethyl-2-((4-neopentylphenyl)sulfonyl)octahydro-3aH-4,6-methanoisoindol-3a-yl)methyl (4-iodophenyl)carbamate] | 200 to 1000 |  |  |
